{
  "source": "PubChem BioAssay AID1259407",
  "about": "(Chemical Carcinogenesis Research Information System (CCRIS), 2018)",
  "test_system": "CCRIS mutagenicity, Ames/micronucleus/aberration tests",
  "assay": "CCRIS mutagenicity studies",
  "key": {"[1]": {"details": "Test System: AMES SALMONELLA TYPHIMURIUM, Strain/Indicator: TA98, Metabolic Activation: NONE, Method: PREINCUBATION"}, "[2]": {"details": "Test System: AMES SALMONELLA TYPHIMURIUM, Strain/Indicator: TA100, Metabolic Activation: NONE, Method: PREINCUBATION"}, "[3]": {"details": "Test System: AMES SALMONELLA TYPHIMURIUM, Strain/Indicator: TA1535, Metabolic Activation: NONE, Method: PREINCUBATION"}, "[4]": {"details": "Test System: AMES SALMONELLA TYPHIMURIUM, Strain/Indicator: TA1537, Metabolic Activation: NONE, Method: PREINCUBATION"}, "[5]": {"details": "Test System: AMES SALMONELLA TYPHIMURIUM, Strain/Indicator: TA1537, Metabolic Activation: RAT, LIVER, S-9, AROCLOR 1254 (10%), Method: PREINCUBATION"}, "[6]": {"details": "Test System: AMES SALMONELLA TYPHIMURIUM, Strain/Indicator: TA98, Metabolic Activation: HAMSTER, LIVER, S-9, AROCLOR 1254 (10%), Method: PREINCUBATION"}, "[7]": {"details": "Test System: AMES SALMONELLA TYPHIMURIUM, Strain/Indicator: TA98, Metabolic Activation: RAT, LIVER, S-9, AROCLOR 1254 (10%), Method: PREINCUBATION"}, "[8]": {"details": "Test System: AMES SALMONELLA TYPHIMURIUM, Strain/Indicator: TA100, Metabolic Activation: HAMSTER, LIVER, S-9, AROCLOR 1254 (10%), Method: PREINCUBATION"}, "[9]": {"details": "Test System: AMES SALMONELLA TYPHIMURIUM, Strain/Indicator: TA100, Metabolic Activation: RAT, LIVER, S-9, AROCLOR 1254 (10%), Method: PREINCUBATION"}, "[10]": {"details": "Test System: AMES SALMONELLA TYPHIMURIUM, Strain/Indicator: TA1535, Metabolic Activation: HAMSTER, LIVER, S-9, AROCLOR 1254 (10%), Method: PREINCUBATION"}, "[11]": {"details": "Test System: AMES SALMONELLA TYPHIMURIUM, Strain/Indicator: TA1535, Metabolic Activation: RAT, LIVER, S-9, AROCLOR 1254 (10%), Method: PREINCUBATION"}, "[12]": {"details": "Test System: AMES SALMONELLA TYPHIMURIUM, Strain/Indicator: TA1537, Metabolic Activation: HAMSTER, LIVER, S-9, AROCLOR 1254 (10%), Method: PREINCUBATION"}},
  "note": "Active and inactive are the calls of the source. No rule for the calls is given here.",
  "data": [
    {"compound": "Cc1ccccc1C=O", "values": [
      {"measurement": "mutagenic call", "setting": "Test System: AMES SALMONELLA TYPHIMURIUM, Strain/Indicator: TA97, Metabolic Activation: HAMSTER, LIVER, S-9, AROCLOR 1254 (10 OR 30%), Method: PREINCUBATION", "result": "inactive; negative"},
      {"measurement": "mutagenic call", "setting": "Test System: AMES SALMONELLA TYPHIMURIUM, Strain/Indicator: TA97, Metabolic Activation: NONE, Method: PREINCUBATION", "result": "inactive; negative"},
      {"measurement": "mutagenic call", "setting": "Test System: AMES SALMONELLA TYPHIMURIUM, Strain/Indicator: TA97, Metabolic Activation: RAT, LIVER, S-9, AROCLOR 1254 (10 OR 30%), Method: PREINCUBATION", "result": "inactive; negative"},
      {"measurement": "mutagenic call", "setting": "Test System: AMES SALMONELLA TYPHIMURIUM, Strain/Indicator: TA98, Metabolic Activation: HAMSTER, LIVER, S-9, AROCLOR 1254 (10 OR 30%), Method: PREINCUBATION", "result": "inactive; negative"},
      {"measurement": "mutagenic call", "setting": "[1]", "result": "inactive; negative"},
      {"measurement": "mutagenic call", "setting": "Test System: AMES SALMONELLA TYPHIMURIUM, Strain/Indicator: TA98, Metabolic Activation: RAT, LIVER, S-9, AROCLOR 1254 (10 OR 30%), Method: PREINCUBATION", "result": "inactive; negative"},
      {"measurement": "mutagenic call", "setting": "Test System: AMES SALMONELLA TYPHIMURIUM, Strain/Indicator: TA100, Metabolic Activation: HAMSTER, LIVER, S-9, AROCLOR 1254 (10 OR 30%), Method: PREINCUBATION", "result": "inactive; negative"},
      {"measurement": "mutagenic call", "setting": "[2]", "result": "inactive; negative"},
      {"measurement": "mutagenic call", "setting": "Test System: AMES SALMONELLA TYPHIMURIUM, Strain/Indicator: TA100, Metabolic Activation: RAT, LIVER, S-9, AROCLOR 1254 (10 OR 30%), Method: PREINCUBATION", "result": "inactive; negative"},
      {"measurement": "mutagenic call", "setting": "Test System: AMES SALMONELLA TYPHIMURIUM, Strain/Indicator: TA1535, Metabolic Activation: HAMSTER, LIVER, S-9, AROCLOR 1254 (10 OR 30%), Method: PREINCUBATION", "result": "inactive; negative"},
      {"measurement": "mutagenic call", "setting": "[3]", "result": "inactive; negative"},
      {"measurement": "mutagenic call", "setting": "Test System: AMES SALMONELLA TYPHIMURIUM, Strain/Indicator: TA1535, Metabolic Activation: RAT, LIVER, S-9, AROCLOR 1254 (10 OR 30%), Method: PREINCUBATION", "result": "inactive; negative"},
      {"measurement": "mutagenic call", "setting": "Test System: AMES SALMONELLA TYPHIMURIUM, Strain/Indicator: TA1537, Metabolic Activation: HAMSTER, LIVER, S-9, AROCLOR 1254 (10 OR 30%), Method: PREINCUBATION", "result": "inactive; negative"},
      {"measurement": "mutagenic call", "setting": "[4]", "result": "inactive; negative"},
      {"measurement": "mutagenic call", "setting": "[5]", "result": "inactive; negative"}
    ]},
    {"compound": "OCCOc1ccccc1", "values": [
      {"measurement": "mutagenic call", "setting": "Test System: Ames Salmonella typhimurium, Strain/Indicator: TA98, Metabolic Activation: None, Method: Preincubation", "result": "inactive; negative"},
      {"measurement": "mutagenic call", "setting": "Test System: Ames Salmonella typhimurium, Strain/Indicator: TA98, Metabolic Activation: Rat, Liver, S-9, Phenobarbital and 5,6-benzoflavone, Method: Preincubation", "result": "inactive; negative"},
      {"measurement": "mutagenic call", "setting": "Test System: Ames Salmonella typhimurium, Strain/Indicator: TA100, Metabolic Activation: None, Method: Preincubation", "result": "inactive; negative"},
      {"measurement": "mutagenic call", "setting": "Test System: Ames Salmonella typhimurium, Strain/Indicator: TA100, Metabolic Activation: Rat, Liver, S-9, Phenobarbital and 5,6-benzoflavone, Method: Preincubation", "result": "inactive; negative"},
      {"measurement": "mutagenic call", "setting": "Test System: Ames Salmonella typhimurium, Strain/Indicator: TA1535, Metabolic Activation: None, Method: Preincubation", "result": "inactive; negative"},
      {"measurement": "mutagenic call", "setting": "Test System: Ames Salmonella typhimurium, Strain/Indicator: TA1535, Metabolic Activation: Rat, Liver, S-9, Phenobarbital and 5,6-benzoflavone, Method: Preincubation", "result": "inactive; negative"},
      {"measurement": "mutagenic call", "setting": "Test System: Ames Salmonella typhimurium, Strain/Indicator: TA1537, Metabolic Activation: None, Method: Preincubation", "result": "inactive; negative"},
      {"measurement": "mutagenic call", "setting": "Test System: Ames Salmonella typhimurium, Strain/Indicator: TA1537, Metabolic Activation: Rat, Liver, S-9, Phenobarbital and 5,6-benzoflavone, Method: Preincubation", "result": "inactive; negative"},
      {"measurement": "mutagenic call", "setting": "Test System: E. coli, Strain/Indicator: WP2uvrA/pKM101, Metabolic Activation: None, Method: Preincubation", "result": "inactive; negative"},
      {"measurement": "mutagenic call", "setting": "Test System: E. coli, Strain/Indicator: WP2uvrA/pKM101, Metabolic Activation: Rat, Liver, S-9, Phenobarbital and 5,6-benzoflavone, Method: Preincubation", "result": "inactive; negative"}
    ]},
    {"compound": "CCCNC(=O)NS(=O)(=O)c1ccc(Cl)cc1", "values": [
      {"measurement": "mutagenic call", "setting": "End Point: IN VITRO CHROMOSOMAL ABERRATIONS, Test System: CHO CELLS, Metabolic Activation: NONE", "result": "inactive; negative"},
      {"measurement": "mutagenic call", "setting": "End Point: IN VITRO CHROMOSOMAL ABERRATIONS, Test System: CHO CELLS, Metabolic Activation: RAT, LIVER, S-9, AROCLOR 1254", "result": "inactive; negative"},
      {"measurement": "mutagenic call", "setting": "[6]", "result": "inactive; negative"},
      {"measurement": "mutagenic call", "setting": "[1]", "result": "inactive; negative"},
      {"measurement": "mutagenic call", "setting": "[7]", "result": "inactive; negative"},
      {"measurement": "mutagenic call", "setting": "[8]", "result": "inactive; negative"},
      {"measurement": "mutagenic call", "setting": "[2]", "result": "inactive; negative"},
      {"measurement": "mutagenic call", "setting": "[9]", "result": "inactive; negative"},
      {"measurement": "mutagenic call", "setting": "[10]", "result": "inactive; negative"},
      {"measurement": "mutagenic call", "setting": "[3]", "result": "inactive; negative"},
      {"measurement": "mutagenic call", "setting": "[11]", "result": "inactive; negative"},
      {"measurement": "mutagenic call", "setting": "[12]", "result": "inactive; negative"},
      {"measurement": "mutagenic call", "setting": "[4]", "result": "inactive; negative"},
      {"measurement": "mutagenic call", "setting": "[5]", "result": "inactive; negative"},
      {"measurement": "mutagenic call", "setting": "Test System: MOUSE LYMPHOMA, Strain/Indicator: L5178Y (TK+/TK-), Metabolic Activation: NONE, Method: SUSPENSION/PLATE", "result": "inactive; negative"},
      {"measurement": "mutagenic call", "setting": "Test System: MOUSE LYMPHOMA, Strain/Indicator: L5178Y (TK+/TK-), Metabolic Activation: RAT, LIVER, S-9, AROCLOR 1254, Method: SUSPENSION/PLATE", "result": "inactive; negative"}
    ]},
    {"compound": "CN(C)C", "values": [
      {"measurement": "mutagenic call", "setting": "[6]", "result": "inactive; negative"},
      {"measurement": "mutagenic call", "setting": "[1]", "result": "inactive; negative"},
      {"measurement": "mutagenic call", "setting": "[7]", "result": "inactive; negative"},
      {"measurement": "mutagenic call", "setting": "[8]", "result": "inactive; negative"},
      {"measurement": "mutagenic call", "setting": "[2]", "result": "inactive; negative"},
      {"measurement": "mutagenic call", "setting": "[9]", "result": "inactive; negative"},
      {"measurement": "mutagenic call", "setting": "[10]", "result": "inactive; negative"},
      {"measurement": "mutagenic call", "setting": "[3]", "result": "inactive; negative"},
      {"measurement": "mutagenic call", "setting": "[11]", "result": "inactive; negative"},
      {"measurement": "mutagenic call", "setting": "[12]", "result": "inactive; negative"},
      {"measurement": "mutagenic call", "setting": "[4]", "result": "inactive; negative"},
      {"measurement": "mutagenic call", "setting": "[5]", "result": "inactive; negative"}
    ]},
    {"compound": "Nc1ccc(N=Nc2ccc(N=Nc3c(S(=O)(=O)O)cc4c(c3N)C(=O)/C(=N\\Nc3ccc(N=Nc5ccc(N)cc5N)cc3)C(S(=O)(=O)O)=C4)cc2)c(N)c1", "values": [
      {"measurement": "mutagenic call", "setting": "Test System: AMES SALMONELLA TYPHIMURIUM, Strain/Indicator: TA1538, Metabolic Activation: NONE, Method: STANDARD PLATE", "result": "inactive; negative"},
      {"measurement": "mutagenic call", "setting": "Test System: AMES SALMONELLA TYPHIMURIUM, Strain/Indicator: TA1538, Metabolic Activation: RAT, LIVER, S-9, AROCLOR 1254, Method: STANDARD PLATE", "result": "active; positive"}
    ]}
  ]
}
